From the supplement of paper PMC10307832

Assays:
Test in all cases: relative viability (nuclei count vs DMSO), 5 days (fraction); higher = more cells survive
Neratinib + OSI-027 = compound: CCOc1cc2ncc(C#N)c(Nc3ccc(OCc4ccccn4)c(Cl)c3)c2cc1NC(=O)/C=C/CN(C)C [Neratinib] + COc1cccc2cc(-c3nc([C@H]4CC[C@H](C(=O)O)CC4)n4ncnc(N)c34)[nH]c12 [OSI-027] (partner 0.5 µM)
Summary of the method: (§1)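 Nuclei were stained with Hoechst during a one-step fixation (final 0.05% Triton X-100, 1% formaldehyde, 1 ug/ml Hoechst) carried out 5 days after dosing, then counted on 4× images. The cells, lung cancer lines in 1536-well plates, had been dosed by pin tool the day after seeding with one drug alone or a fixed anchor-drug dose plus five library-drug doses (not always all listed) in √10 steps. Relative viability is the nuclei count in treated wells divided by that in vehicle wells, and each value is the median of duplicate plates.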

Neratinib + Pictilisib = compound: CCOc1cc2ncc(C#N)c(Nc3ccc(OCc4ccccn4)c(Cl)c3)c2cc1NC(=O)/C=C/CN(C)C [Neratinib] + CS(=O)(=O)N1CCN(Cc2cc3nc(-c4cccc5[nH]ncc45)nc(N4CCOCC4)c3s2)CC1 [Pictilisib] (partner 1 µM)
Summary of the method: as §1

Neratinib + Luminespib = compound: CCOc1cc2ncc(C#N)c(Nc3ccc(OCc4ccccn4)c(Cl)c3)c2cc1NC(=O)/C=C/CN(C)C [Neratinib] + CCNC(=O)c1noc(-c2cc(C(C)C)c(O)cc2O)c1-c1ccc(CN2CCOCC2)cc1 [Luminespib] (partner 0.01 µM)
Summary of the method: as §1

Neratinib + Palbociclib = compound: CCOc1cc2ncc(C#N)c(Nc3ccc(OCc4ccccn4)c(Cl)c3)c2cc1NC(=O)/C=C/CN(C)C [Neratinib] + CC(=O)c1c(C)c2cnc(Nc3ccc(N4CCNCC4)cn3)nc2n(C2CCCC2)c1=O [Palbociclib] (partner 0.5 µM)
Summary of the method: as §1

Cell Line | relative viability (Neratinib + OSI-027; first compound 0.01 µM) | relative viability (Neratinib + OSI-027; first compound 0.03162 µM) | relative viability (Neratinib + OSI-027; first compound 0.1 µM) | relative viability (Neratinib + OSI-027; first compound 0.3162 µM) | relative viability (Neratinib + OSI-027; first compound 1 µM) | relative viability (Neratinib + Pictilisib; first compound 0.01 µM) | relative viability (Neratinib + Pictilisib; first compound 0.03162 µM) | relative viability (Neratinib + Pictilisib; first compound 0.1 µM) | relative viability (Neratinib + Pictilisib; first compound 0.3162 µM) | relative viability (Neratinib + Pictilisib; first compound 1 µM) | relative viability (Neratinib + Luminespib; first compound 0.01 µM) | relative viability (Neratinib + Luminespib; first compound 0.03162 µM) | relative viability (Neratinib + Luminespib; first compound 0.1 µM) | relative viability (Neratinib + Luminespib; first compound 0.3162 µM) | relative viability (Neratinib + Luminespib; first compound 1 µM) | relative viability (Neratinib + Palbociclib; first compound 0.01 µM) | relative viability (Neratinib + Palbociclib; first compound 0.03162 µM) | relative viability (Neratinib + Palbociclib; first compound 0.1 µM) | relative viability (Neratinib + Palbociclib; first compound 0.3162 µM) | relative viability (Neratinib + Palbociclib; first compound 1 µM)
NCI-H1792 | 0.825 | 0.87 | 0.698 | 0.692 | 0.424 | 0.311 | 0.274 | 0.254 | 0.278 | 0.126 | 0.458 | 0.466 | 0.365 | 0.358 | 0.381 | 0.813 | 0.71 | 0.414 | 0.616 | 0.445
NCI-H2009 | 0.677 | 0.762 | 0.59 | 0.467 | 0.304 | 0.862 | 0.892 | 0.727 | 0.638 | 0.432 | 0.998 | 1.01 | 0.828 | 1.01 | 0.962 | 0.176 | 0.266 | 0.21 | 0.243 | 0.208
NCI-H661 | 0.688 | 0.615 | 0.54 | 0.325 | 0.24 | 0.507 | 0.399 | 0.303 | 0.24 | 0.272 | 0.966 | 0.905 | 0.593 | 0.587 | 0.372 | 0.437 | 0.388 | 0.323 | 0.318 | 0.298
NCI-H1793 | 0.309 | 0.26 | 0.237 | 0.167 | 0.145 | 0.31 | 0.361 | 0.319 | 0.339 | 0.275 | 0.153 | 0.182 | 0.153 | 0.164 | 0.157 | 0.257 | 0.276 | 0.239 | 0.241 | 0.23
NCI-H1395 | – | 0.748 | 0.632 | 0.623 | 0.468 | 0.595 | 0.679 | 0.602 | 0.659 | 0.449 | 0.59 | – | 0.903 | 0.814 | 0.418 | 0.66 | 0.709 | 0.63 | 0.58 | 0.414
HCC-827 | 0.81 | 0.774 | 0.721 | 0.508 | 0.16 | 0.872 | 0.88 | 0.73 | 0.623 | 0.219 | 1.08 | 1.03 | 0.703 | 0.176 | 0.18 | 0.503 | 0.509 | 0.513 | 0.194 | 0.15
ChaGo-K-1 | 0.62 | 0.545 | 0.574 | 0.459 | 0.613 | 0.668 | 0.781 | 0.689 | 0.639 | 0.614 | 0.753 | 0.672 | 0.604 | 0.595 | – | 0.997 | 0.986 | 0.93 | 0.956 | 0.867
NCI-H23 | 0.717 | 0.664 | 0.561 | 0.504 | 0.296 | 0.553 | 0.428 | 0.437 | 0.483 | 0.372 | 0.201 | 0.231 | 0.203 | 0.225 | 0.204 | 0.48 | 0.579 | 0.482 | 0.563 | 0.318
